Read-outs that look alike come from different tables or passages of the source. Peptide text beside a SMILES is read from it. * marks the point of attachment. 5FAM = O=C1OC2(c3ccc(O)cc3Oc3cc(O)ccc32)c2ccc(C(=O)*)cc21
Legend:
[1] = target: T1, calprotectin tetramer (recombinant B-RCAL) (Homo sapiens, UniProt P05109); experiment: SPR binding level at a single peptide concentration (500 nM); design: we used the recombinant protein without removing the His-tag or cleaving the 8-amino acid linker between the two proteins; co-authors' company; settings: peptides injected at 500 nM, single measurement
T1 sequence (P05109 with tags, fused parts or gaps): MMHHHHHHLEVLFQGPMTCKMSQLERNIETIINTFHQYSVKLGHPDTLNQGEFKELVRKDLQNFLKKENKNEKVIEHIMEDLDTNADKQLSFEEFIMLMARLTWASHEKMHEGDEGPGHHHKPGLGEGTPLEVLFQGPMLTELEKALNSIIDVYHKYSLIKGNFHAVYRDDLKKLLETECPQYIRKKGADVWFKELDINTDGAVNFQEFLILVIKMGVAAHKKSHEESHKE
From the text: Typical immobilization levels were 3000 resonance units (RUs).

[2] = target: T2, calprotectin tetramer (recombinant B-RCAL, His6-linker-S100A9-linker-S100A8) (Homo sapiens, UniProt P05109); experiment: Fluorescence polarization (FP) binding to recombinant calprotectin B-RCAL tetramer in presence of CaCl2; settings: for effect of mutation to alanine on binding: alanine scan of linear peptide 3, found via FP and SPR
T2 construct: we used the recombinant protein without removing the His-tag or cleaving the 8-amino acid linker between the two proteins; co-authors' company
T2 sequence (P05109 with tags, fused parts or gaps): T1 sequence (P05109 with tags, fused parts or gaps)
Protocol: Calprotectin was serially diluted in 20 mM HEPES, 100 mM NaCl, 2 mM CaCl2, pH 7.5, and 1 mM DTT with 0.01% (v/v) Tween-20. Volumes of 16 μL of protein were added to 4 μL of fluorescent peptide (20 nM final concentration) in black 384-well microtiter plates. Fluorescence anisotropy was measured on a microwell plate reader (Infinite M200Pro, Tecan) with filters for excitation at 485 nm and emission at 535 nm. The dissociation constant (Kd) was calculated using a following Eq. (1) using Prism 5 software (GraphPad):1 A=Af+Ab−Af×LT+KD+PT−LT+KD+PT^2−4LTPT/2LT where A is anisotropy, Af and Ab are the anisotropy values for free and bound ligands, respectively. [L]T is the concentration of the total fluorescent ligand and [P]T the concentration of the protein.

[3] = target: T3, native calprotectin (tetramer, + CaCl2) (Homo sapiens, UniProt P05109+P06702); experiment: FP binding to native calprotectin derived from granulocytes
T3 construct: Native calprotectin is derived from granulocytes; tissue gift from Thomas Vogl, Institute of Immunology, University of Muenster; host or cells: granulocytes
T3 sequence (P05109 1-93): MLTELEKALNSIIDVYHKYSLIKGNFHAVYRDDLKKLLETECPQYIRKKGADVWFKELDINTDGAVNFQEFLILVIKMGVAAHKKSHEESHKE
T3 sequence (P06702 2-114 limits assumed): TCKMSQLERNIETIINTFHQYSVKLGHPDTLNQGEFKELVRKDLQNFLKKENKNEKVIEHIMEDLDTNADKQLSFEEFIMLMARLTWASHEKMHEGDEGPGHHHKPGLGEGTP
Protocol: Fluorescence anisotropy was measured on a microwell plate reader (Infinite M200Pro, Tecan) with filters for excitation at 485 nm and emission at 535 nm. The dissociation constant (Kd) was calculated using a following Eq. […] [L]T is the concentration of the total fluorescent ligand and [P]T the concentration of the protein. Native calprotectin is derived from granulocytes (kind gift from Thomas Vogl, Institute of Immunology, University of Muenster) and was purified as described in ref. [34]. The size and concentration was analyzed and compared to B-RCAL by standard SDS-PAGE.

[4] = target: T1, calprotectin tetramer (recombinant B-RCAL); experiment: biochemical
Protocol: SPR measurements were performed using a Biacore^TM 8 K instrument (GE Healthcare) using the Biacore^TM 8 K Control software. Recombinant calprotectin (B-RCAL) was diluted with 10 mM acetate buffer (pH 5.0) to reach a concentration of 5 μg/mL and immobilized on a CM5 series S chip using the standard amine coupling method in running buffer (10 mM HEPES pH 7.4, 150 mM NaCl, 2 mM CaCl2, and 0.005% v/v Tween-20) at 25 °C and the following procedure. At a flow of 10 μL/min, the following solutions were injected: 420 s 0.4 M EDC, 0.1 M NHS; 100 to 200 s protein; 500 s 1 M ethanolamine-HCl pH 8.5. Typical immobilization levels were 3000 resonance units (RUs). A reference cell was treated in the same way but without the injection of protein. A single concentration for each peptide (500 nM) was injected in a running buffer containing 0.5% (v/v) DMSO to measure the binding level. For the measurement of binding kinetics and dissociation constants, five serial dilutions (threefold) of peptides were prepared in running buffer containing 0.5% (v/v) DMSO and analyzed in single cycle kinetics mode with the contact and dissociation times of 90 s and 120 s, respectively. Data were analyzed using Biacore^TM 8 K Evaluation software.

[5] = FP, alanine scan of linear peptide 3, 20 nM peptide, 2 mM CaCl2, one measurement, NB = non-binding

Structure (SMILES) | Response at binding [1] [RU] | effect of mutation to alanine on binding [2] | other results
CSCC[C@H](NC(=O)[C@@H]1CCCN1C(=O)[C@H](Cc1ccccc1)NC(=O)[C@H](C)NC(=O)[C@@H](NC(=O)[C@H](CO)NC(=O)[C@H](CCC(=O)O)NC(=O)[C@@H]1CCCN1C(=O)[C@H](CO)NC(=O)[C@H](CCCNC(=N)N)NC(=O)c1ccc2c(c1)C(=O)OC21c2ccc(O)cc2Oc2cc(O)ccc21)C(C)C)C(=O)N[C@@H](Cc1ccccc1)C(=O)N[C@@H](CCC(N)=O)C(=O)N[C@@H](CO)C(=O)N[C@@H](Cc1c[nH]cn1)C(=O)N[C@@H](Cc1c[nH]c2ccccc12)C(=O)N[C@@H](C)C(=O)N[C@@H](CO)C(=O)NCC(N)=O [Peptide Y16A] (5FAM-RSPESVAFPMFQSHWASG-NH2) | 6 | complete loss in binding | 
CC(C)[C@H](NC(=O)[C@H](CO)NC(=O)[C@H](CCC(=O)O)NC(=O)[C@@H]1CCCN1C(=O)[C@H](CO)NC(=O)[C@H](CCCNC(=N)N)NC(=O)c1ccc2c(c1)C(=O)OC21c2ccc(O)cc2Oc2cc(O)ccc21)C(=O)N[C@@H](C)C(=O)N[C@@H](Cc1ccccc1)C(=O)N1CCC[C@H]1C(=O)N[C@@H](C)C(=O)N[C@@H](Cc1ccccc1)C(=O)N[C@@H](CCC(N)=O)C(=O)N[C@@H](CO)C(=O)N[C@@H](Cc1c[nH]cn1)C(=O)N[C@@H](Cc1c[nH]c2ccccc12)C(=O)N[C@@H](Cc1ccc(O)cc1)C(=O)N[C@@H](CO)C(=O)NCC(N)=O [Peptide M10A] (5FAM-RSPESVAFPAFQSHWYSG-NH2) | 7 | complete loss in binding | 
CSCC[C@H](NC(=O)[C@@H]1CCCN1C(=O)[C@H](C)NC(=O)[C@H](C)NC(=O)[C@@H](NC(=O)[C@H](CO)NC(=O)[C@H](CCC(=O)O)NC(=O)[C@@H]1CCCN1C(=O)[C@H](CO)NC(=O)[C@H](CCCNC(=N)N)NC(=O)c1ccc2c(c1)C(=O)OC21c2ccc(O)cc2Oc2cc(O)ccc21)C(C)C)C(=O)N[C@@H](Cc1ccccc1)C(=O)N[C@@H](CCC(N)=O)C(=O)N[C@@H](CO)C(=O)N[C@@H](Cc1c[nH]cn1)C(=O)N[C@@H](Cc1c[nH]c2ccccc12)C(=O)N[C@@H](Cc1ccc(O)cc1)C(=O)N[C@@H](CO)C(=O)NCC(N)=O [Peptide F8A] (5FAM-RSPESVAAPMFQSHWYSG-NH2) | -0.0133 | complete loss in binding | 
CSCC[C@H](NC(=O)[C@@H]1CCCN1C(=O)[C@H](Cc1ccccc1)NC(=O)[C@H](C)NC(=O)[C@@H](NC(=O)[C@@H]1CSCC(=O)CSC[C@H](NC(=O)[C@H](CCCNC(=N)N)NC(=O)c2ccc3c(c2)C(=O)OC32c3ccc(O)cc3Oc3cc(O)ccc32)C(=O)N2CCC[C@H]2C(=O)N[C@@H](CCC(=O)O)C(=O)N1)C(C)C)C(=O)N[C@@H](Cc1ccccc1)C(=O)N[C@@H](CCC(N)=O)C(=O)N[C@H]1CSCC(=O)CSC[C@@H](C(=O)NCC(N)=O)NC(=O)[C@H](Cc2ccc(O)cc2)NC(=O)[C@H](Cc2c[nH]c3ccccc23)NC(=O)[C@H](Cc2c[nH]cn2)NC1=O (single isomer, unassigned) [Peptide 3 Isomer 1] |  |  | Kd [3]: 26 ± 2 nM; Kd [4]: 51 nM; Kd [2]: 24 ± 10 nM
CSCC[C@H](NC(=O)[C@@H]1CCCN1C(=O)[C@H](Cc1ccccc1)NC(=O)[C@H](C)NC(=O)[C@@H](NC(=O)[C@H](CO)NC(=O)[C@H](CCC(=O)O)NC(=O)[C@@H]1CCCN1C(=O)[C@H](CO)NC(=O)[C@H](CCCNC(=N)N)NC(=O)c1ccc2c(c1)C(=O)OC21c2ccc(O)cc2Oc2cc(O)ccc21)C(C)C)C(=O)N[C@@H](Cc1ccccc1)C(=O)N[C@@H](CCC(N)=O)C(=O)N[C@@H](CO)C(=O)N[C@@H](C)C(=O)N[C@@H](Cc1c[nH]c2ccccc12)C(=O)N[C@@H](Cc1ccc(O)cc1)C(=O)N[C@@H](CO)C(=O)NCC(N)=O [Peptide H14A] (5FAM-RSPESVAFPMFQSAWYSG-NH2) | 10 | complete loss in binding | 
CSCC[C@H](NC(=O)[C@@H]1CCCN1C(=O)[C@H](Cc1ccccc1)NC(=O)[C@H](C)NC(=O)[C@@H](NC(=O)[C@H](CO)NC(=O)[C@H](CCC(=O)O)NC(=O)[C@@H]1CCCN1C(=O)[C@H](CO)NC(=O)[C@H](CCCNC(=N)N)NC(=O)c1ccc2c(c1)C(=O)OC21c2ccc(O)cc2Oc2cc(O)ccc21)C(C)C)C(=O)N[C@@H](C)C(=O)N[C@@H](CCC(N)=O)C(=O)N[C@@H](CO)C(=O)N[C@@H](Cc1c[nH]cn1)C(=O)N[C@@H](Cc1c[nH]c2ccccc12)C(=O)N[C@@H](Cc1ccc(O)cc1)C(=O)N[C@@H](CO)C(=O)NCC(N)=O [Peptide F11A] (5FAM-RSPESVAFPMAQSHWYSG-NH2) | -1.75 | complete loss in binding | 
CSCC[C@H](NC(=O)[C@@H]1CCCN1C(=O)[C@H](Cc1ccccc1)NC(=O)[C@H](C)NC(=O)[C@@H](NC(=O)[C@H](CO)NC(=O)[C@H](CCC(=O)O)NC(=O)[C@@H]1CCCN1C(=O)[C@H](CO)NC(=O)[C@H](CCCNC(=N)N)NC(=O)c1ccc2c(c1)C(=O)OC21c2ccc(O)cc2Oc2cc(O)ccc21)C(C)C)C(=O)N[C@@H](Cc1ccccc1)C(=O)N[C@@H](C)C(=O)N[C@@H](CO)C(=O)N[C@@H](Cc1c[nH]cn1)C(=O)N[C@@H](Cc1c[nH]c2ccccc12)C(=O)N[C@@H](Cc1ccc(O)cc1)C(=O)N[C@@H](CO)C(=O)NCC(N)=O [Peptide Q12A] (5FAM-RSPESVAFPMFASHWYSG-NH2) |  |  | Kd [2, 5]: 27 nM
CC(C)C[C@H](NC(=O)[C@@H]1CCCN1C(=O)[C@H](Cc1ccccc1)NC(=O)[C@H](C)NC(=O)[C@@H](NC(=O)[C@H](CO)NC(=O)[C@H](CCC(=O)O)NC(=O)[C@@H]1CCCN1C(=O)[C@H](CO)NC(=O)[C@H](CCCNC(=N)N)NC(=O)c1ccc2c(c1)C(=O)OC21c2ccc(O)cc2Oc2cc(O)ccc21)C(C)C)C(=O)N[C@@H](Cc1ccccc1)C(=O)N[C@@H](CCC(N)=O)C(=O)N[C@@H](CO)C(=O)N[C@@H](Cc1c[nH]cn1)C(=O)N[C@@H](Cc1c[nH]c2ccccc12)C(=O)N[C@@H](Cc1ccc(O)cc1)C(=O)N[C@@H](CO)C(=O)NCC(N)=O [Met10Leu mutant] (5FAM-RSPESVAFPLFQSHWYSG-NH2) |  |  | Kd ([2]; FP, linear peptide 3 with Met10 mutated to leucine, 20 nM peptide, 2 mM CaCl2): 30.6 ± 4.6 nM
CSCC[C@H](NC(=O)[C@@H]1CCCN1C(=O)[C@H](Cc1ccccc1)NC(=O)[C@H](C)NC(=O)[C@@H](NC(=O)[C@H](CO)NC(=O)[C@H](CCC(=O)O)NC(=O)[C@@H]1CCCN1C(=O)[C@H](CO)NC(=O)[C@H](CCCNC(=N)N)NC(=O)c1ccc2c(c1)C(=O)OC21c2ccc(O)cc2Oc2cc(O)ccc21)C(C)C)C(=O)N[C@@H](Cc1ccccc1)C(=O)N[C@@H](CCC(N)=O)C(=O)N[C@@H](CO)C(=O)N[C@@H](Cc1c[nH]cn1)C(=O)N[C@@H](Cc1c[nH]c2ccccc12)C(=O)N[C@@H](Cc1ccc(O)cc1)C(=O)N[C@@H](CO)C(=O)N[C@@H](C)C(N)=O [Peptide G18A] (5FAM-RSPESVAFPMFQSHWYSA-NH2) |  |  | Kd [2, 5]: 31 nM
CSCC[C@H](NC(=O)[C@@H]1CCCN1C(=O)[C@H](Cc1ccccc1)NC(=O)[C@H](C)NC(=O)[C@@H](NC(=O)[C@@H]1CSCC(=O)CSC[C@H](NC(=O)[C@H](CCCNC(=N)N)NC(=O)c2ccc3c(c2)C(=O)OC32c3ccc(O)cc3Oc3cc(O)ccc32)C(=O)N2CCC[C@H]2C(=O)N[C@@H](CCC(=O)O)C(=O)N1)C(C)C)C(=O)N[C@@H](Cc1ccccc1)C(=O)N[C@@H](CCC(N)=O)C(=O)N[C@@H](CO)C(=O)N[C@@H](Cc1c[nH]cn1)C(=O)N[C@@H](Cc1c[nH]c2ccccc12)C(=O)N[C@@H](Cc1ccc(O)cc1)C(=O)N[C@@H](CO)C(=O)NCC(N)=O (single isomer, unassigned) [Peptide 3 Isomer 1a] |  |  | Kd [2]: 16.9 nM

— paper PMC10192418, “High-affinity peptides developed against calprotectin and their application as synthetic ligands in diagnostic assays” (Nature Communications, 2023)
